Test results published in patent publication US20190388437A1, “COMPOSITIONS AND METHODS FOR TREATING BONE AND JOINT INFECTIONS” (priority 2014, published 2019).
Where “and” joins values, the source holds several entries; their conditions need not be identical. Identical values can stand only once. Like-named read-outs stand apart in the source and are kept apart here.

Key:
[1] = test system: methicillin-resistant S. aureus (MRSA) strain USA 300; format: cell-based, Staphylococcus aureus
Experimental: Pharmacodynamics of CEM-102 against Methicillin-Resistant Staphylococcus aureus Using In vitro Models. A hollow fiber model was used to evaluate CEM-102 resistance potential in methicillin-resistant S. aureus (MRSA) strain USA 300 (Network of Antimicrobial Resistance in Staphylococcus aureus (MRSA), Chantilly, Va.). USA 300 is a highly virulent strain of MRSA and is the most common community-associated MRSA isolate in the USA. MIC values were determined in accordance with Clinical and Laboratory Standards Institute (CLSI).
The hollow fiber model comprised a two-compartment hollow fiber model (Louie et al. Antimicrob Agents Chemother 52:2486-2496(2008)) consisting of a volume of 15 mL in the central compartment, with multiple ports for the removal of broth, delivery of antibiotics, and collection of bacterial and antimicrobial samples. […] All experiments were performed in duplicate.
Hollow fibers contain 15 ml of media was prepared and inoculated with 10^6 colony forming units (CFU)/mL USA 300 bacteria. One of three different dosing regimens of […] was then applied to the fibers: (1) […] q12h; (2) 1200 mg/ml×2, followed by […], q12h; (3) 1500 mg/ml×2, followed by […], q12h.

[2] = Single oral dose bioavailability study, fed/fasted crossover; format: in vivo, healthy subjects (human)
Experimental: Single oral dose bioavailability study of CEM-102 (sodium fusidate). […] This was a single-center, Phase 1, double-blind, randomized, 3 period, fed/fasted crossover bioequivalence study designed to evaluate the relative bioavailability and safety and tolerability of a single oral dose of CEM-102 500 mg compared to Fucidin® 500 mg in healthy subjects. Subjects were randomized in equal numbers to the 4 treatment sequences (Table 3).
Study Period 1, 2, and 3 (Days 1, 15, and 29): One dose of study drug 500 mg (2×250 mg) of CEM-102 or Fucidin® was given at 8:00 AM (˜30 minutes). On Day 1 of Study Periods 1 and 2 (Days 1 and 15), subjects fasted overnight for at least 10 hours prior to dosing. On Day 1 of Study Period 3 (Day 29), subjects were given a high fat caloric meal which was to be entirely consumed within 30 minutes prior to study drug administration.
Blood samples for assay of plasma concentrations were collected on Days 1, 15 and 29 at pre-dose and 0.5, 1, 1.5, 2, 2.5, 3, 3.5, 4, 6, 8, 12, 16, 24, 36, and 48 hours after the dose. Plasma concentrations were assayed at MicroConstants, Inc. in San Diego, Calif. using a validated liquid chromatography with dual tandem mass spectrometry (LC/MS/MS) method with a lower limit of quantitation (LLOQ) of 20.0 ng/mL

[3] = test system: Group A beta hemolytic Streptococcus; conditions: cited from earlier work
[4] = in the blood; cited from earlier work
Staphylococcus = conditions: cited from earlier work

**Q.** Which results are given for `CC(=O)O[C@H]1C[C@@]2(C)[C@@H](C[C@@H](O)[C@H]3[C@@]4(C)CC[C@@H](O)[C@@H](C)[C@@H]4CC[C@@]32C)/C1=C(\CCC=C(C)C)C(=O)O` [FA, fusidic acid]?
**A.** outcome of treatment ([1]; 600 mg q12h): regrowth and development of resistance by 24 h and 48 h; reduction of bacterial counts ([1]; 1200 mg×2 then 600 mg q12h): ~2 logs; time of rebound ([1]; 1200 mg×2 then 600 mg q12h): 72 h; killing ([1]; 1500 mg×2 then 600 mg q12h): over 2.5 log; resistance suppressed until ([1]; 1500 mg×2 then 600 mg q12h): > 72 h; time of rebound ([1]; 1500 mg×2 then 600 mg q12h): 144 h; total exposure (AUC) ([2]; 500 mg, fasting): ~318 µg·h/mL; total exposure (AUC) ([2]; 500 mg, fed): approximately 285 μg·h/mL; tmax, median ([2]; human, in vivo, po): ~3.00 h; t1/2, arithmetic mean ± SD ([2]; human, in vivo, po, 500 mg): ~11.8 h; tmax, median ([2]; single oral 500 mg (2×250 mg), fasting): 3.00 h; tmax, median ([2]; single oral 500 mg (2×250 mg), fed): 3.50 h; MIC90 [3]: 4 to 8 µg/mL; MICs ([3]; classified as moderately susceptible): 4-16 micrograms per ml; Protein binding [4]: 95-97% and 96-98%; MIC in plasma protein (Staphylococcus): ≥ 2.5 micrograms per ml; increase of MIC in plasma protein (Staphylococcus): 8-10 fold
